Patent publication US10668067B2, “Pyridine sulfonamides” (AMGEN INC., priority 2016, dated 2020)

Target: human Nav1.7 (Homo sapiens (Human), UniProt Q15858)
Assay: Nav 1.7 In Vitro PX Assay (PatchXpress whole cell voltage clamp)
Type: cell-based
Settings: in-vitro Nav 1.7 PX data
Experimental: HEK 293 cells stably transfected with human Nav1.7 were recorded in whole cell voltage clamp mode with the PatchXpress automated electrophysiology system (Molecular Devices, LLC, Sunnyvale, Calif.). Compound effects were measured on a partially inactivated state of the sodium channel. Cells were clamped to a holding potential yielding 20 to 50% inactivation. To elicit sodium current, channels were activated by pulsing to −10 mV for 20 msec. This voltage protocol was repeated at a rate of 0.1 Hz throughout the experiment. A single concentration of test compound was applied to cells for a duration of 3 minutes. Peak sodium current was measured at the end of the compound addition period to determine percent inhibition. Three to five cells were tested per concentration, and IC50 curves were fitted to percent inhibition as a function of concentration.

Sequence of human Nav1.7 (Q15858 whole entry): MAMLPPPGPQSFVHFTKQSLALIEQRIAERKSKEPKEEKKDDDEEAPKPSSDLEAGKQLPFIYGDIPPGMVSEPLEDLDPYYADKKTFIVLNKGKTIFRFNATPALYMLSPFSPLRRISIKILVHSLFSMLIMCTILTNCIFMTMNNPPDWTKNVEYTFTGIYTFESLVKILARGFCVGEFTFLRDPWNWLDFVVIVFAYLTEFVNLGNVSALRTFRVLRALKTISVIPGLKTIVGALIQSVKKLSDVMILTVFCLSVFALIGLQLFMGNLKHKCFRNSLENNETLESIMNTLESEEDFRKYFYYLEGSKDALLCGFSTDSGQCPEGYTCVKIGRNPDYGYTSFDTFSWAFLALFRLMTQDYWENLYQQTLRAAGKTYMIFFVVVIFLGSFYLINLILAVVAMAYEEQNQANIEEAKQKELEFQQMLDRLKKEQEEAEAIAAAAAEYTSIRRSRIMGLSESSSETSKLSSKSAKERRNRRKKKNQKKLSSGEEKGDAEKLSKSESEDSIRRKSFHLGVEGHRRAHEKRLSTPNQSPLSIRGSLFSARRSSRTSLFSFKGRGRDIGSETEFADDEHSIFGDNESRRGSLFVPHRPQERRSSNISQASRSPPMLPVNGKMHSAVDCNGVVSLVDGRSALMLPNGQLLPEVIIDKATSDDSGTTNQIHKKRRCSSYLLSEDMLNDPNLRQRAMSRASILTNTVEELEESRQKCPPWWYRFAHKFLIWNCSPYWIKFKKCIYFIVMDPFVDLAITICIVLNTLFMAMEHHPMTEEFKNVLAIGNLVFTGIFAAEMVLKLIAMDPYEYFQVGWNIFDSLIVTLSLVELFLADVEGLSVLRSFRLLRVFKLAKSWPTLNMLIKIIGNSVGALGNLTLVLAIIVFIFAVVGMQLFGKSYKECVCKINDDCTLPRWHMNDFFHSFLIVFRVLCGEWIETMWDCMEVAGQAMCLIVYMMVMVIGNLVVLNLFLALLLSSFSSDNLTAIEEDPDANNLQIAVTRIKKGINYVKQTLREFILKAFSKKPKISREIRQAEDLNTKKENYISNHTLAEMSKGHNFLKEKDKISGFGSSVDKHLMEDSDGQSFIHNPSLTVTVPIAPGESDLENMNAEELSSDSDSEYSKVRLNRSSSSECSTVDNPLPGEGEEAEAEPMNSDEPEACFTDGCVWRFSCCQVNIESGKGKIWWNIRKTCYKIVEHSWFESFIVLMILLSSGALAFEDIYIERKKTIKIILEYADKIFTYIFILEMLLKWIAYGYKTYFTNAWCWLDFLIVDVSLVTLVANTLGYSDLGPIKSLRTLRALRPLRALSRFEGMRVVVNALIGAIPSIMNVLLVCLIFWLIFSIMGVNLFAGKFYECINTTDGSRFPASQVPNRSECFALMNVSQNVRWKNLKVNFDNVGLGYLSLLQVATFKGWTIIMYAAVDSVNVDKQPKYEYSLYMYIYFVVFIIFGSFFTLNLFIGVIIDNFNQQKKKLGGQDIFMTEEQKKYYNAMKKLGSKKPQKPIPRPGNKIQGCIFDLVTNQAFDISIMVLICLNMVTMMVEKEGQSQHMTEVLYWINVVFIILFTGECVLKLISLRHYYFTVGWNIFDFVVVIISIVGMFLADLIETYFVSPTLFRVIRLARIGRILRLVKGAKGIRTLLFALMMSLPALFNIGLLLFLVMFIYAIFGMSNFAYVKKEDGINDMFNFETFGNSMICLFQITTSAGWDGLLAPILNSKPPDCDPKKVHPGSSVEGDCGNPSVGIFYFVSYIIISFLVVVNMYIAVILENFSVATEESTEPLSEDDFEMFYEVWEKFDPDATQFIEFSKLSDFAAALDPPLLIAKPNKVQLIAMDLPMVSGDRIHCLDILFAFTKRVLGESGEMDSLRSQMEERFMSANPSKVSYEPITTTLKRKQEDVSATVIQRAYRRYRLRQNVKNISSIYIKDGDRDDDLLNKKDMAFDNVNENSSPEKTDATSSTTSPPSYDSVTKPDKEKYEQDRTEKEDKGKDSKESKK

Row | SMILES | IC50
1 | CNC(=O)N(c1ccc(S(=O)(=O)Nc2ccon2)cn1)c1cc(Cl)c(-c2ccc(F)c(F)c2)cc1OC [Example 1-65, 6-((2-chloro-3′,4′-difluoro-5-methoxy-4-biphenylyl)(methylcarbamoyl)amino)-N-3-isoxazolyl-3-pyridinesulfonamide] | 54 nM
2 | CNC(=O)N(c1ccc(S(=O)(=O)Nc2ccon2)cn1)c1cc(Cl)c(-c2cc(OC)c(F)c(OC)c2)cc1OC [Example 1-66, 6-((2-chloro-4′-fluoro-3′,5,5′-trimethoxy-4-biphenylyl)(methylcarbamoyl)amino)-N-3-isoxazolyl-3-pyridinesulfonamide] | 59 nM
3 | CNC(=O)N(c1ccc(S(=O)(=O)Nc2ccon2)cn1)c1cc(Cl)c(-c2ccc(Cl)cc2)cc1OC [Example 1-70, 6-((2,4′-dichloro-5-methoxy-4-biphenylyl)(methylcarbamoyl)amino)-N-3-isoxazolyl-3-pyridinesulfonamide] | 52 nM
4 | CNC(=O)N(c1ccc(S(=O)(=O)Nc2ccon2)cn1)c1ccc(-c2ccc(F)c(C)c2)cc1OC [Example 1-71, 6-((4′-fluoro-3-methoxy-3′-methyl-4-biphenylyl)(methylcarbamoyl)amino)-N-3-isoxazolyl-3-pyridinesulfonamide] | 398 nM
5 | CNC(=O)N(c1ccc(S(=O)(=O)Nc2ccon2)cn1)c1ccc(-c2cc(F)cc(Cl)c2)cc1OC [Example 1-74, 6-((3′-chloro-5′-fluoro-3-methoxy-4-biphenylyl)(methylcarbamoyl)amino)-N-3-isoxazolyl-3-pyridinesulfonamide] | 84 nM
6 | CNC(=O)N(c1ccc(S(=O)(=O)Nc2ncccn2)cn1)c1cc(Cl)c(-c2ccc(Cl)c(C#N)c2)cc1OC [Example 1-75, 6-((2,4′-dichloro-3′-cyano-5-methoxy-4-biphenylyl)(methylcarbamoyl)amino)-N-2-pyrimidinyl-3-pyridinesulfonamide] | 106 nM
7 | CNC(=O)N(c1ccc(S(=O)(=O)Nc2ncccn2)cn1)c1cc(Cl)c(-c2ccc(F)c(F)c2)cc1OC [Example 1-76, 6-((2-chloro-3′,4′-difluoro-5-methoxy-4-biphenylyl)(methylcarbamoyl)amino)-N-2-pyrimidinyl-3-pyridinesulfonamide] | 116 nM
8 | CNC(=O)N(c1ccc(S(=O)(=O)Nc2ncccn2)cn1)c1cc(Cl)c(-c2cc(Cl)cc(C#N)c2)cc1OC [Example 1-78, 6-((2,3′-dichloro-5′-cyano-5-methoxy-4-biphenylyl)(methylcarbamoyl)amino)-N-2-pyrimidinyl-3-pyridinesulfonamide] | 123 nM
9 | CNC(=O)N(c1ccc(S(=O)(=O)Nc2ncccn2)cn1)c1cc(Cl)c(-c2cc(OC)cc(OC)c2)cc1OC [Example 1-79, 6-((2-chloro-3′,5,5′-trimethoxy-4-biphenylyl)(methylcarbamoyl)amino)-N-2-pyrimidinyl-3-pyridinesulfonamide] | 166 nM
10 | CNC(=O)N(c1ccc(S(=O)(=O)Nc2ncccn2)cn1)c1cc(F)c(-c2ccc(Cl)c(C)c2)cc1OC [Example 1-80, 6-((4′-chloro-2-fluoro-5-methoxy-3′-methyl-4-biphenylyl)(methylcarbamoyl)amino)-N-2-pyrimidinyl-3-pyridinesulfonamide] | 39 nM
11 | CNC(=O)N(c1ccc(S(=O)(=O)Nc2ncccn2)cn1)c1cc(F)c(-c2cc(OC)cc(C(F)(F)F)c2)cc1OC [Example 1-82, 6-((2-fluoro-3′,5-dimethoxy-5′-(trifluoromethyl)-4-biphenylyl)(methylcarbamoyl)amino)-N-2-pyrimidinyl-3-pyridinesulfonamide] | 18 nM
12 | CNC(=O)N(c1ccc(S(=O)(=O)Nc2ncccn2)cn1)c1cc(F)c(-c2cccc(OC(F)(F)F)c2)cc1OC [Example 1-84, 6-((2-fluoro-5-methoxy-3′-(trifluoromethoxy)-4-biphenylyl)(methylcarbamoyl)amino)-N-2-pyrimidinyl-3-pyridinesulfonamide] | 62 nM
13 | CNC(=O)N(c1ccc(S(=O)(=O)Nc2ncccn2)cn1)c1cc(F)c(-c2ccc(F)c(OCC(F)(F)F)c2)cc1OC [Example 1-88, 6-((2,4′-difluoro-5-methoxy-3′-(2,2,2-trifluoroethoxy)-4-biphenylyl)(methylcarbamoyl)amino)-N-2-pyrimidinyl-3-pyridinesulfonamide] | 40 nM
14 | CNC(=O)N(c1ccc(S(=O)(=O)Nc2ncccn2)cn1)c1cc(F)c(-c2ccc(Cl)c(C(F)(F)F)c2)cc1OC [Example 1-89, 6-((4′-chloro-2-fluoro-5-methoxy-3′-(trifluoromethyl)-4-biphenylyl)(methylcarbamoyl)amino)-N-2-pyrimidinyl-3-pyridinesulfonamide] | 45 nM
15 | CONC(=O)N(c1ccc(S(=O)(=O)Nc2ccon2)cn1)c1cc(F)c(-c2cccc(C(F)(F)F)c2)cc1OC [Example 1-90, 6-((2-fluoro-5-methoxy-3′-(trifluoromethyl)-4-biphenylyl)(methoxycarbamoyl)amino)-N-3-isoxazolyl-3-pyridinesulfonamide] | 69 nM
16 | CNC(=O)N(c1ccc(S(=O)(=O)Nc2ncccn2)cn1)c1cc(F)c(-c2ccc(F)c(Cl)c2)cc1OC [Example 2-1, 6-((3′-chloro-2,4′-difluoro-5-methoxy-4-biphenylyl)(methylcarbamoyl)amino)-N-2-pyrimidinyl-3-pyridinesulfonamide] | 18 nM

Continued by falling IC50, values first:

Row | IC50 | SMILES
17 | 220 nM | CNC(=O)N(c1ccc(S(=O)(=O)Nc2ncccn2)cn1)c1cc(F)c(-c2cc(F)c(F)c(F)c2)cc1OC [Example 1-86, 6-((methylcarbamoyl)(2,3′,4′,5′-tetrafluoro-5-methoxy-4-biphenylyl)amino)-N-2-pyrimidinyl-3-pyridinesulfonamide]
18 | 143 nM | CNC(=O)N(c1ccc(S(=O)(=O)Nc2ncccn2)cn1)c1cc(F)c(-c2cccc(C(F)(F)F)c2)cc1OC [Example 1-81, 6-((2-fluoro-5-methoxy-3′-(trifluoromethyl)-4-biphenylyl)(methylcarbamoyl)amino)-N-2-pyrimidinyl-3-pyridinesulfonamide]
19 | 101 nM | CNC(=O)N(c1ccc(S(=O)(=O)Nc2ccon2)cn1)c1ccc(-c2cc(Cl)cc(OC)c2)cc1OC [Example 1-72, 6-((3′-chloro-3,5′-dimethoxy-4-biphenylyl)(methylcarbamoyl)amino)-N-3-isoxazolyl-3-pyridinesulfonamide]
20 | 78 nM | CNC(=O)N(c1ccc(S(=O)(=O)Nc2ccon2)cn1)c1cc(Cl)c(-c2cc(OC)cc(OC)c2)cc1OC [Example 1-64, 6-((2-chloro-3′,5,5′-trimethoxy-4-biphenylyl)(methylcarbamoyl)amino)-N-3-isoxazolyl-3-pyridinesulfonamide]
21 | 70 nM | CNC(=O)N(c1ccc(S(=O)(=O)Nc2ncccn2)cn1)c1cc(Cl)c(-c2ccc(Cl)c(OC)c2)cc1OC [Example 1-77, 6-((2,4′-dichloro-3′,5-dimethoxy-4-biphenylyl)(methylcarbamoyl)amino)-N-2-pyrimidinyl-3-pyridinesulfonamide]
22 | 65 nM | CNC(=O)N(c1ccc(S(=O)(=O)Nc2ccon2)cn1)c1ccc(-c2ccc(Cl)c(C)c2)cc1OC [Example 1-73, 6-((4′-chloro-3-methoxy-3′-methyl-4-biphenylyl)(methylcarbamoyl)amino)-N-3-isoxazolyl-3-pyridinesulfonamide]
23 | 64 nM | CNC(=O)N(c1ccc(S(=O)(=O)Nc2ccon2)cn1)c1cc(Cl)c(-c2ccc(C)c(F)c2)cc1OC [Example 1-62, 6-((2-chloro-3′-fluoro-5-methoxy-4′-methyl-4-biphenylyl)(methylcarbamoyl)amino)-N-3-isoxazolyl-3-pyridinesulfonamide]
24 | 34 nM | CCOc1cc(-c2cc(OC)c(N(C(=O)NC)c3ccc(S(=O)(=O)Nc4ccon4)cn3)cc2Cl)ccc1F [Example 1-67, 6-((2-chloro-3′-ethoxy-4′-fluoro-5-methoxy-4-biphenylyl)(methylcarbamoyl)amino)-N-3-isoxazolyl-3-pyridinesulfonamide]
25 | 32 nM | CNC(=O)N(c1ccc(S(=O)(=O)Nc2ncccn2)cn1)c1cc(F)c(-c2ccc(Cl)c(Cl)c2)cc1OC [Example 1-83, 6-((3′,4′-dichloro-2-fluoro-5-methoxy-4-biphenylyl)(methylcarbamoyl)amino)-N-2-pyrimidinyl-3-pyridinesulfonamide]
26 | 32 nM | CNC(=O)N(c1ccc(S(=O)(=O)Nc2ncccn2)cn1)c1cc(F)c(-c2ccc(F)c(C(F)(F)F)c2)cc1OC [Example 1-85, 6-((2,4′-difluoro-5-methoxy-3′-(trifluoromethyl)-4-biphenylyl)(methylcarbamoyl)amino)-N-2-pyrimidinyl-3-pyridinesulfonamide]
27 | 28 nM | CNC(=O)N(c1ccc(S(=O)(=O)Nc2ccon2)cn1)c1cc(Cl)c(-c2ccc(Cl)c(F)c2)cc1OC [Example 1-63, 6-((2,4′-dichloro-3′-fluoro-5-methoxy-4-biphenylyl)(methylcarbamoyl)amino)-N-3-isoxazolyl-3-pyridinesulfonamide]
28 | 23 nM | CNC(=O)N(c1ccc(S(=O)(=O)Nc2ccon2)cn1)c1cc(Cl)c(-c2cc(F)c(F)c(OC)c2)cc1OC [Example 1-68, 6-((2-chloro-3′,4′-difluoro-5,5′-dimethoxy-4-biphenylyl)(methylcarbamoyl)amino)-N-3-isoxazolyl-3-pyridinesulfonamide]
29 | 6 nM | CNC(=O)N(c1ccc(S(=O)(=O)Nc2ccon2)cn1)c1cc(Cl)c(-c2ccc(F)c(OC(F)(F)F)c2)cc1OC [Example 1-69, 6-((2-chloro-4′-fluoro-5-methoxy-3′-(trifluoromethoxy)-4-biphenylyl)(methylcarbamoyl)amino)-N-3-isoxazolyl-3-pyridinesulfonamide]
